Assay results taken from patent US6426343B1, “Preparation and use of a specific GABA-Aα5 receptor ligand for treatment of Alzheimer's disease” (Merck Sharp & Dohme Ltd., priority 1995, dated 2002).

Assays:
[1] = tested on: benzodiazepine binding site of α1-containing GABA receptors; experiment: In vivo [3H]Ro 15-1788 binding, cerebellum; conditions: male, Swiss-Webster, mouse, cerebellum, intraperitoneal, 1 mg/kg, probe [3H]Ro 15-1788
Experimental: (§1) The in vivo binding of [^3H]Ro 15-1788 to mouse brain was performed essentially as described by Goeders and Kuhar (1985). Male Swiss-Webster mice received a 0.9% NaCl solution containing 50 mCi/kg of [^3H]Ro 15-1788 (0.05 ml/10 g of body weight) via the tail vein. […] Each mouse brain was then rapidly removed, homogenised in 5.0 ml of 50 mM Tris HCl, 5.0 mM EDTA, pH 7.4 at 4° C. using an ultra-turrax homogeniser for 10 s at setting 5. In a separate series of experiments different brain regions, selected for their preferential expression of particular GABA subtypes were also examined. Binding of [^3H]Ro 15-1788 to cerebellum is almost exclusively α1-like (Quirk et al, 1994), whereas binding to spinal cord is indicative of binding to receptors containing α2 or α3-subtypes, α1, α4 and α5 are rare or absent in this region (Wisden et al, 1992). Brains were rapidly dissected into forebrain and cerebellum and the spinal cord was also removed. Each forebrain was homogenised in 4.0 ml of buffer (approximately 14 ml/g wet weight of tissue), each cerebellum was homogenised in 1.0 ml of buffer (approximately 14 ml/g wet weight of tissue) and each spinal cord in 1.0 ml of buffer (approximately […] wet weight of tissue). Volumes ([…]) of homogenate were filtered rapidly through GF/B filters, washed with 2×5.0 ml volumes of ice-cold buffer and the residual radioactivity was counted by liquid scintillation spectroscopy.
(§2) Mice were injected intraperitoneally with FG 8094, 10 mg/kg or 1 mg/kg, 30 minutes prior to sacrifice and [^3H]Ro 15-1788 (0.1 mCi/g). Brain regions were dissected, homogenised and filtered as described in methods.

Cerebellum (α1) = Cerebellum (α1) (Mus musculus, UniProt P22723+P62812); experiment: In vivo [3H]Ro 15-1788 binding, cerebellum
Cerebellum (α1), sequence (P62812 28-455): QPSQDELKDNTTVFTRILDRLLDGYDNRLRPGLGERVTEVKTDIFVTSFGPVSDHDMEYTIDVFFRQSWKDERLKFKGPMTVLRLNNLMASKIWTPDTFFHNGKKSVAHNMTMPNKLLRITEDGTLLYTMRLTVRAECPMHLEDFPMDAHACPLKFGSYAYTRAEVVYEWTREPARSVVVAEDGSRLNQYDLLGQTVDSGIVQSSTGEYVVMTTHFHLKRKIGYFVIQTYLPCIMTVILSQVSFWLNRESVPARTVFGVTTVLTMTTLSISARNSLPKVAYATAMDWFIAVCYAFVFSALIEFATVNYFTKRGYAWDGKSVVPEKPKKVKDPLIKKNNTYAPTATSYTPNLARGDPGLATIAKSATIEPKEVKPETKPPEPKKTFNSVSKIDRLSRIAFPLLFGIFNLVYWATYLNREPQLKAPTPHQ
Cerebellum (α1), sequence (P22723 39-474): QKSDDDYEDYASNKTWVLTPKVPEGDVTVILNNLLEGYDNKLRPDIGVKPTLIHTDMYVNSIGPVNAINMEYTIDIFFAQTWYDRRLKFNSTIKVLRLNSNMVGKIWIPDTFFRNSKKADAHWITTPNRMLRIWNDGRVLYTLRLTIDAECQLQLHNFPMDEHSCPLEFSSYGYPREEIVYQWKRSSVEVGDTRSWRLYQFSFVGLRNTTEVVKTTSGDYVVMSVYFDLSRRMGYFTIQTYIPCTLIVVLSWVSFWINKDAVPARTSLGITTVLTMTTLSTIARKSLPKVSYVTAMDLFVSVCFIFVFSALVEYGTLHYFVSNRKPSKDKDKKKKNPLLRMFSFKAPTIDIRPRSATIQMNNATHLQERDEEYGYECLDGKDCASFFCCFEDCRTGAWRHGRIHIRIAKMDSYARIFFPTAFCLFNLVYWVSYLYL
Cerebellum (α1), sequence (P63137 25-474 partner limits assumed): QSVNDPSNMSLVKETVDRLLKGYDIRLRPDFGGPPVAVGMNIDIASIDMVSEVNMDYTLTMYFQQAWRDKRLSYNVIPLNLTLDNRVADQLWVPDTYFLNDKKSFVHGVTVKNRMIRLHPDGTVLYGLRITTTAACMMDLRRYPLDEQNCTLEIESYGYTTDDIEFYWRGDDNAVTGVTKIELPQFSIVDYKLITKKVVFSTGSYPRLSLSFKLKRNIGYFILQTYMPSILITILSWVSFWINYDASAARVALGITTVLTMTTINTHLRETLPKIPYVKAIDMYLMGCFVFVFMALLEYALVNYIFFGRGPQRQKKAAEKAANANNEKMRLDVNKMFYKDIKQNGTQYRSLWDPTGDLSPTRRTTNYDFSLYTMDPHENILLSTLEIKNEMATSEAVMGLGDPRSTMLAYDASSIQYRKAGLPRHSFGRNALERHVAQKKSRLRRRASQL
Experimental: as §1, §2

[2] = ip, read-out: percentage inhibition of in vivo [3H]Ro 15-1788 binding, cerebellum

CCOC(=O)c1ncn2c1[C@@H]1CCCN1C(=O)c1cc(OC)ccc1-2 [FG 8094, 9H-imidazo[1,5-a]pyrrolo[2,1-C][1,4]benzodiazepine-1-carboxylic acid, 11, 12, 13, 13a-tetrahydro-7-methoxy-9-oxo-, ethyl ester, (S)-(9CI)]
concentration at 30 min [1]: 7.8 nM
inhibition at 1 mg/kg (Cerebellum (α1); [2]): 13.8 ± 4.9%
inhibition at 10 mg/kg (Cerebellum (α1); [2]): 55 ± 6.9%
receptor occupancy at 1 mg/kg (Cerebellum (α1); read-out: occupancy of α1 receptors): < 15%
